Measured values: paper PMC12957798, “Adaptation of plateau frog peptide: From antimicrobial to angiogenic and proliferative functions” (Journal of Advanced Research, 2025)
Entries after “also recorded” stand apart in the source; their conditions may differ.

How the values were obtained:
[1] = tested on: Transgenic zebrafish Tg (Fli1a:eGFP); experiment: Zebrafish VRI-induced vascular insufficiency model (ISV); type: in vivo; details: VRI 300 ng/mL
Protocol: Transgenic zebrafish Tg (Fli1a:eGFP) were cultured in culture tanks at 28 °C in a 14 h:10 h light/dark cycle for up to 6 months and subsequently made to produce zygotes by mating only, zebrafish larvae at 24 h post fertilisation (hpf) were induced for 3 h with a VEGFR tyrosine kinase inhibitor II (VRI) to produce a model of vascular insufficiency, after which they were washed to abort the effect of VRI was added to the same number of zebrafish of different groups with SC17-2 or equivalent amount of PBS, and images of zebrafish embryos were captured by Leica fluorescence microscopy, and the ISV index was calculated as follows: ISV index = intact blood vessels × 1 + defective blood vessels × 0.5.

wound tissue = experiment: H&E staining of mouse wound sections; type: in vivo
Protocol: (§1) Sodium pentobarbital (2 %) was utilised for the anaesthetisation of mice by intraperitoneal injection (0.1 mL/20 g of mouse body weight). Subsequent to the induction of anaesthesia, the dorsal hair was removed using depilatory creams and electric scissors. Thereafter, circular full skin wounds of the same diameter were marked and created on the back of each mouse using circular stamps and red stencils. Mouse wounds were then covered and infiltrated daily with 20 μL of different concentrations of SC17-2 or 20 ng/mL of VEGF, and an equal volume of saline was used in the control group. Mice were anaesthetised every two days using isoflurane nebulisation followed by anaesthesia (concentration 2 %), after which they were placed under an optical camera to photograph the effect of wound area. After 13 days of treatment, mice were anaesthetised using isoflurane nebulisation followed by injection of an overdose of sodium pentobarbital to euthanise the mice (200 mg/kg). The wounds and their surrounding tissues were then excised for histopathological evaluation (Masson and H&E staining) and analysed by Enface immunofluorescence staining.

BALB/c mice = experiment: Mouse full-thickness skin wound healing; type: in vivo; details: for wound area: 20 μL daily on wound, relative to day 1, mean ± SEM, n = 7
Protocol: Mice were anaesthetised with sodium pentobarbital 2 % by intraperitoneal injection (0.1 mL/20 g mouse body weight), and after anaesthesia, hair was removed from the back using depilatory cream and power scissors, and circular full-thickness skin wounds of the same diameter were marked and created on the back of each mouse using circular stamps and red sealant. The mouse wounds were then covered and infiltrated daily with 20 μL of different concentrations of SC17-2 or 20 ng/mL VEGF, and an equal volume of saline was used in the control group. The mice were anaesthetised by isoflurane nebulisation (concentration 2 %) every two days and then placed under an optical camera to photograph the effect of the wound area.
as §1

[2] = tested on: Acinetobacter baumannii (ATCC 19606), Candida auris (ATCC 10231), Pseudomonas aeruginosa (ATCC 27853) and Staphylococcus aureus (ATCC 6538); experiment: Disk diffusion (paper-disc agar-diffusion) antimicrobial test; type: cell-based; details: SC17-2 10 mg/mL, 1 mL on filter paper, 24 h, 37 °C, b51 statement also rests on the MIC test
Protocol: Disk diffusion and broth microdilution tests were selected as the standard method for screening the antimicrobial activity of SC17-2 [58]. The experiments were conducted utilising the disk diffusion test, whereby the following strains were examined: Acinetobacter baumannii (ATCC 19606), Candida auris (ATCC 10231), Pseudomonas aeruginosa (ATCC 27853) and Staphylococcus aureus (ATCC 6538). The concentration of bacterial suspension was then adjusted to 1 × 10^5 CFU/mL with saline, after which it was set aside. Separate plates containing bacterial agar were prepared: MH agar was utilised for the isolation of bacterial samples, while Sartorius agar was employed for the isolation of fungal samples. The suspensions containing the aforementioned microorganisms were then spread on the designated plates at a rate of 1:1000. A sterile filter paper was used to dispense 1 mL of SC17-2 (10 mg/mL), with equal amounts of PBS and Vancomycin/Colistin serving as controls. The plates were then subjected to the appropriate temperature (24 h at 37 °C) and subsequently observed under a camera to ascertain the results.

[3] = Circular dichroism spectroscopy; type: physicochemical
EGFR = EGFR (Homo sapiens, UniProt P00533); experiment: Bio-Layer Interferometry (BLI); type: binding
Protocol: Prepare 20 μg/mL of EGFR protein solution (solvent 0.1 % PBS-Tween), and different concentrations of SC17-2 (5, 10, 20 μg/mL) dissolved using PBST. Biotin was added and incubated at room temperature for 30 min according to the instructions, and the corresponding probes were soaked in PBST for 10 min. The assay was carried out according to the BLI predefined procedure (Octet K2, ForteBio, USA), followed by calculations using the accompanying software, and graphpad was used for graphing.

[4] = increase in concentration of SC17-2

SFMPLSIPIMCKMLSKC [SC17-2, peptide of the pleskein family from the skin transcriptome of the frog Nanorana parkeri, made by solid-phase synthesis]
ISVs restored, relative to healthy zebrafish ([1]; SC17-2 20 μg/mL, 24 h, n = 6): 84.18%
number of ISV, dose dependence ([1]; SC17-2 5, 10, 20 μg/mL, 24 h post-treatment): significant increase in the number of ISV in a dose-dependent manner
inflammatory cell infiltration in wound tissue (wound tissue; day 13, SC17-2 no less than 10 μg/mL): significantly reduced the degree of inflammatory cell infiltration in the wound tissue
epithelial tissue thickness (wound tissue; [4]): notable thickening of epithelial tissue
granulation tissue formation (wound tissue; [4]): enhanced granulation tissue formation
reduction of wound area vs control, significance (BALB/c mice; SC17-2 20 μg/mL, at times other than day 9): significantly promote the reduction of wound area
reduction of wound area vs control on day 9 (BALB/c mice; SC17-2 20 μg/mL, day 9): non-significant difference
final reduction in wound area, dose dependence (BALB/c mice; after 13 days of treatment): metrologically dependent on SC17-2
wound area (BALB/c mice; day 3, SC17-2 20 μg/mL): 77.84 ± 3.34%
wound area (BALB/c mice; day 5, SC17-2 20 μg/mL): 54.43 ± 2.53%
wound area compared with VEGF (BALB/c mice; day 13, SC17-2 20 μg/mL vs VEGF): significantly smaller
wound area (BALB/c mice; day 13, SC17-2 20 μg/mL): 2.65 ± 0.72%
wound area reduction, ratio to saline-treated control (BALB/c mice; days 3 and 5, SC17-2 20 μg/mL): ~1.3 fold
antimicrobial (bacteriostatic) activity [2]: no bacteriostatic activity; also recorded: does not appear to have antimicrobial activity
secondary structure composition ([3]; 0 mM (H2O) and 60 mM SDS): primarily of random coil and β-sheet structures, with only trace amounts of γ-turn and α-helix structures
secondary structure, change with SDS ([3]; 0 mM (H2O) vs 60 mM SDS): remained largely unchanged
EGFR binding, dose dependence (EGFR): binds in a dose-dependent manner
